Article PMC8670630 (Bioorganic & medicinal chemistry letters, 2021)

What was measured:
[1] = molecular target: human sulfide:quinone oxidoreductase (SQOR) (Homo sapiens, UniProt Q9Y6N5); assay: SQOR inhibition; format: biochemical
[2] = Mouse plasma protein binding; format: in vitro ADME
Caco-2 = Caco-2 permeability; format: in vitro ADME
mammalian cells = conditions: in vitro tests; ref [21],[22]; cited from earlier work
[3] = tested on: murine model of heart failure; conditions: ref [21],[22]; cited from earlier work
CoQ-binding site in SQOR = conditions: in vitro tests; ref [21],[22]; cited from earlier work

human sulfide:quinone oxidoreductase (SQOR), sequence (Q9Y6N5 whole entry): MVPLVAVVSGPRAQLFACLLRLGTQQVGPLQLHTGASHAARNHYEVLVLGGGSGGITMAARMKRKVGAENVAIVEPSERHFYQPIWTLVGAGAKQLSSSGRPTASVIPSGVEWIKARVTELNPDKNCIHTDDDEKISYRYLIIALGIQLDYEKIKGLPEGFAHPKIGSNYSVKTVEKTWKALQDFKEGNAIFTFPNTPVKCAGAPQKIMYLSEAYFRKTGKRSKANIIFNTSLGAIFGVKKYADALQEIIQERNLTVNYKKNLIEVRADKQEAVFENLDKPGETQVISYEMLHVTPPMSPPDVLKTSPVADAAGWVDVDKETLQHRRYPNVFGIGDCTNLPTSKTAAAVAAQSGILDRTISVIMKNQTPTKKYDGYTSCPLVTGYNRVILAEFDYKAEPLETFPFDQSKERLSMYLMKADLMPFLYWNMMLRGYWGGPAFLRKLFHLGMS

COc1nc(-c2ccccc2)cc(-c2ccc(Cl)cc2Cl)c1C#N [Compound 7]
activity in IC50 assay (in words) [1]: inactivity

COc1nc(-c2ncccc2C)cc(-c2ccc(F)cc2)c1C#N [Compound 15]
Mouse Plasma Protein Binding (% bound) [2]: 99.64 % bound
Caco-2 permeability A→B (Caco-2; A→B): 0.455 1 × 10^−6 cm/s
Caco-2 permeability B→A (Caco-2; B→A): 0.769 1 × 10^−6 cm/s

COc1nc(-c2ncccc2C)cc(-c2ccc(N)cc2)c1C#N [Compound 19]
toxicity in mammalian cells (mammalian cells): little or no toxicity
effect on cardiac function and progression to heart failure [3]: preserves cardiac function and prevents the progression to heart failure
Mouse Plasma Protein Binding (% bound) [2]: 97.8 % bound
specificity for the CoQ-binding site in SQOR (CoQ-binding site in SQOR): high degree of specificity

CCOc1nc(-c2ccccc2)nc(-c2ccccc2)c1C#N [Compound 24]
fold less active than the equivalent pyridine 21 ([1]; SQOR inhibition, 24 versus 21): 2 fold
